Data: patent US20110172230A1, “UREA COMPOUND OR SALT THEREOF” (priority 2006, published 2011)
Counter-ions that a name gives are not always drawn.

How the values were obtained:
FAAH = biological target: T1, FAAH (Rattus norvegicus, UniProt P97612); test: Screening for an FAAH activity inhibiting substance using a rat brain homogenate (IC50); assay type: biochemical; conditions: radiolabeled anandamide substrate, 1 hour
T1 construct: the rat brain homogenate was diluted so that its protein concentration could be 60 μg/ml, thereby preparing an enzyme solution; from tissue; host or cells: rat cerebrum (SD-line male rat, 10 weeks) homogenate, 15000 x g pellet
T1 sequence (P97612 1-579): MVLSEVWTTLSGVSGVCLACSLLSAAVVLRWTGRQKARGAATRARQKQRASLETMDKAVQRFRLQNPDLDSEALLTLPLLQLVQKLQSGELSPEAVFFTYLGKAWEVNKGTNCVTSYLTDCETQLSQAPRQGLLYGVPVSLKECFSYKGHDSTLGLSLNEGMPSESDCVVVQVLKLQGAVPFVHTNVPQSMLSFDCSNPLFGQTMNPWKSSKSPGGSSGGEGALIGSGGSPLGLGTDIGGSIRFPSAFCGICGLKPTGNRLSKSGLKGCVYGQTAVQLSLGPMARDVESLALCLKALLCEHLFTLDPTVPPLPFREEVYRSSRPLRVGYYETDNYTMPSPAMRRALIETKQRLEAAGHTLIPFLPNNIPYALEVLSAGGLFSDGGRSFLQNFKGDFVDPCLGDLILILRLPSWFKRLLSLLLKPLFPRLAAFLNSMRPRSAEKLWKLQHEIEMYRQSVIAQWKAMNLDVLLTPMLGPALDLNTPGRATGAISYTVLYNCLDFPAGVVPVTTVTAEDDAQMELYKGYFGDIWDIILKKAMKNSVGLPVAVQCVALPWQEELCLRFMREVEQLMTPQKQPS
Method: Screening for an FAAH Activity Inhibiting Substance Using a Rat Brain Homogenate
(1) Preparation of a Rat Brain Homogenate
The head of a 10-week-old SD-line male rat (Japan SLC., Inc.) was cut off, and its cerebrum was taken out and weighed. Five times by volume its weight of an ice-cooled buffer (50 mM Tris-HCl (pH 7.4), 0.32 M sucrose) was added, and this was homogenized with a homogenizer in ice to give a uniform suspension. This was centrifuged (1500×g, 4° C., 15 minutes), and the supernatant was again centrifuged (15000×g, 4° C., 20 minutes) to obtain a precipitate. Further, using an ultrasonic wave generator (UR-20P, TOMY SEIKO CO., LTD.), this was ultrasonicated (power dial 4) for 5 seconds. The protein concentration of the resulting homogenate was measured according to a dye-coupling method (protein assay CBB solution, NACALAI TESQUE, INC.). Using a buffer (50 mM Tris-HCl (pH 8.0), 1 mM EDTA, 0.1 mg/ml BSA, 100 mM NaCl), the rat brain homogenate was diluted so that its protein concentration could be 60 μg/ml, thereby preparing an enzyme solution.
(2) Screening for an FAAH Activity Inhibiting Substance
A substrate solution was prepared, comprising 2 μCi/ml radiolabeled anandamide (Anandamide [ethanolamine 1-^3H] (American Radiolabeled Chemical)), 8 μM anandamide (Funakoshi), 50 mM Tris-HCl (pH 8.0), 1 mM EDTA, 0.1 mg/ml BSA and 100 mM NaCl. Test substance solutions were prepared, dissolved in DMSO to have a concentration from 1 nM to 100 μM. 50 μl of the substrate solution and 1 μl of the test substance solution were added to 50 μl of the enzyme solution, and left for 1 hour. As a control, DMSO was added in place of the test substance solution. To this, added was 200 μl of a 1:1 (ratio by volume) solution of chloroform/methanol, followed by vortexing. This was centrifuged (15000 rpm, 2 minutes), whereby the decomposed product ethanolamine (ethanolamine 1-^3H) was separated in the upper layer (water/methanol layer) and the unreacted radiolabeled anandamide (Anandamide [ethanolamine 1-^3H]) was in the lower layer (chloroform layer). 30 μl of the upper layer was transferred into a 96-well organic solvent-resistant white microplate (PicoPlate-96; Perkin Elmer, Inc.), 150 μl of Microscint-20 (Perkin Elmer, Inc.) was added thereto, and this was measured with a microplate scintillation counter (TopCount™; Beckman Coulter, Inc.). As compared with the control, the substance that gave a decreased value was selected as an FAAH activity-inhibiting substance.
(3) Measurement of the IC50 Value of the FAAH Activity Inhibiting Substance
The compound was dissolved in DMSO to have a varying concentration from 1 nM to 100 μM to prepare test substance solutions. According to the method mentioned above, the compound was analyzed for its influence on FAAH activity. As a control, DMSO was used. A measured value of a case where a buffer (50 mM Tris-HCl (pH 8.0), 1 mM EDTA, 0.1 mg/ml BSA, 100 mM NaCl) was reacted in place of the enzyme solution was subtracted from every measured value. Based on the measured value of the control, 100%, the IC50 value of the test substance was determined. Furthermore, Ex represents the Example No. as denoted below.

[1] = system: cyclophosphamide (CPA)-induced urinary frequency; test: Effect of compound on cyclophosphamide (CPA)-induced urinary frequency in a rat (effective bladder capacity); assay type: in vivo; conditions: CPA (100 mg/kg i.p.)-treated Wistar female rats, p.o.; for effective dose in oral administration: effective bladder capacity over 1 hour
Method: Effect of Compound on Cyclophosphamide (CPA)-Induced Urinary Frequency in a Rat
Compounds were tested for their bladder irritation-relieving effect, using pathologic models. It is known that systemic administration of cyclophosphamide (CPA) converts the compound into its metabolite, acrolein, and, as existing in urine, this injures the bladder mucosa. In rats, CPA administration induces bladder pain or urinary frequency accompanied by hemorrhagic cystitis, and therefore using such rats, it is possible to evaluate the potency of drug for these symptoms. In this experiment, used were 9-week-old Wistar female rats (Charles River). CPA (100 mg/kg) was intraperitoneally administered to the rats, and after 2 days, the rats were tested. A test compound was orally administered (p.o.) to the rats; and after 15 minutes, distilled water (30 ml/kg) was forcedly orally administered thereto. The rats were put in a metabolic cage, and the weight of their urine was continuously measured for 1 hour. The overall urine amount was divided by the overall urination frequency, and the effective bladder capacity was thus calculated. […] In oral administration, the effective doses of compounds of Examples 155 and 210 were 10 mg/kg and 3 mg/kg, respectively.

SMILES	IC50 (FAAH)	effect on effective bladder capacity / urinary frequency [1]	effective dose in oral administration [1]
O=C(Nc1cnccn1)N1CCN(C(=O)c2ccnc(OCCC3CCCCC3)c2)CC1 [Example 38, 4-[2-(2-cyclohexylethoxy)isonicotinoyl]-N-pyrazin-2-ylpiperazine-1-carboxamide]	5 nM		
O=C(Nc1ncccn1)N1CCN(C(=O)c2cccc(OCCC3CCCCC3)c2)CC1 [Example 155]	25 nM	increased the reduced effective bladder capacity, and relieved the condition of urinary frequency	10 mg/kg
CN(CCC1CCCCC1)c1ccc(C(=O)N2CCN(C(=O)Nc3cccnc3)CC2)cc1 [Example 334]	42 nM		

Continued, in another order:

IC50 (FAAH)	SMILES	effect on effective bladder capacity / urinary frequency [1]	effective dose in oral administration [1]
30 nM	O=C(Nc1cccnc1)N1CCN(Cc2ccnc(OCCC3CCCCC3)c2)CC1 [Example 30, 4-{[2-(2-cyclohexylethoxy)pyridin-4-yl]methyl}-N-pyridin-3-ylpiperazine-1-carboxamide trihydrochloride]		
3.3 nM	O=C(Nc1cnccn1)N1CCN(C(=O)c2cccc(OCCC3CCCCC3)c2)CC1 [Example 210]	increased the reduced effective bladder capacity, and relieved the condition of urinary frequency	3 mg/kg
25 nM	COCC(=O)NC(=O)N1CCN(Cc2cccc(OCCC3CCCCC3)c2)CC1 [Example 439]		
